Reference: ChEMBL document CHEMBL1122067, “Species- or isozyme-specific enzyme inhibitors. 4. Design of a two-site inhibitor of adenylate kinase with isozyme selectivity” (J Med Chem, 1982)
“And” between values parts separate entries of the source, which are not always exact repeats. Identical values can stand only once. Values belong to the compound of their own block, whether it stands above or below them.

Legend:
[1] = Non-competitive binding inhibition constant (Ki) of rat adenylate kinase (AK) isozymes was determined
[2] = target: T1, GTP:AMP phosphotransferase AK3, mitochondrial (Rattus norvegicus, UniProt P29411); test: Competitive binding inhibition constant of rat Adenylate kinase III was determined
T1 sequence (P29411 whole entry): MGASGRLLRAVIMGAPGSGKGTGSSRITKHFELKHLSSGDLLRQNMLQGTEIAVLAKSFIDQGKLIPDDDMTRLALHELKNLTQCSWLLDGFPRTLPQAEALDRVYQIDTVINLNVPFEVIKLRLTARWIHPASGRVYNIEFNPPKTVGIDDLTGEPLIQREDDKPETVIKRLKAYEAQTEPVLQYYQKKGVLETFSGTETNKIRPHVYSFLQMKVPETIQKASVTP

[3] = Non competitive binding inhibition constant(Ki) of rat adenylate kinase (AK) isozymes was determined
[4] = target: T2, Adenylate kinase 2, mitochondrial (Rattus norvegicus, UniProt P29410); test: Non competitive binding inhibition constant (Ki) of rat adenylate kinase (AK II) isozymes was determined
[5] = target: T1, GTP:AMP phosphotransferase AK3, mitochondrial; test: Non competitive binding inhibition constant of rat aAdenylate kinase III was determined
[6] = target: T1, GTP:AMP phosphotransferase AK3, mitochondrial; test: Non competitive binding inhibition of rat adenylate kinase IIl was determined
[7] = Non competitive binding inhibition constant (Ki) of rat adenylate kinase (AK) isozymes was determined
[8] = Competitive binding inhibition constant (Ki) of rat adenylate kinase (AK) isozymes was determined
[9] = target: T2, Adenylate kinase 2, mitochondrial; test: Ability to inhibit the rat muscle adenylate kinase (AK II) isozyme in competition with the AMP varied; conditions: in the assay text read “rat liver” for “rat muscle”
[10] = target: T2, Adenylate kinase 2, mitochondrial; test: Ability to inhibit the rat muscle adenylate kinase (AK II) isozyme in competition with the ATP varied; conditions: in the assay text read “rat liver” for “rat muscle”
[11] = Ability to inhibit the rat muscle adenylate kinase isozyme in competition with the AMP varied
[12] = Ability to inhibit the rat muscle adenylate kinase isozyme in competition with the ATP varied
[13] = target: T1, GTP:AMP phosphotransferase AK3, mitochondrial; test: Ability to inhibit the rat muscle adenylate kinase lII in competition with the AMP varied; conditions: in the assay text read “rat liver adenylate kinase III” for “rat muscle adenylate kinase lII”
[14] = target: T2, Adenylate kinase 2, mitochondrial; test: Ability to inhibit the rat muscle adenylate kinase(AK II) isozyme in competition with the ATP varied; conditions: in the assay text read “rat liver” for “rat muscle”
[15] = target: T2, Adenylate kinase 2, mitochondrial; test: Ability to inhibit the rat muscle adenylate kinase(AK II) isozyme in competition with the AMP varied; conditions: in the assay text read “rat liver” for “rat muscle”
[16] = Non-competitive binding inhibition constant(Ki) of rat adenylate kinase (AK) isozymes was determined
[17] = target: T2, Adenylate kinase 2, mitochondrial; test: Competitive binding inhibition constant(Ki) of rat adenylate kinase (AK II) isozymes was determined
[18] = target: T1, GTP:AMP phosphotransferase AK3, mitochondrial; test: Competitive binding inhibition constant of rat adenylate kinase IIl was determined

Compound: Nc1ncnc2c1nc(Sc1ccccc1)n2[C@@H]1O[C@H](COP(=O)(O)OP(=O)(O)OP(=O)(O)O)[C@@H](O)[C@H]1O
Ki [1]: 4 mM
Ki [2]: 0.32 mM

Compound: Nc1ncnc2c1ncn2[C@@H]1O[C@H](COP(=O)(O)OP(=O)(O)OP(=O)(O)OP(=O)(O)OP(=O)(O)OC[C@H]2O[C@@H](n3cnc4c(N)ncnc43)[C@H](O)[C@@H]2O)[C@@H](O)[C@H]1O
Inhibition constant [9]: 0.28 µM
Inhibition constant [10]: 0.3 µM
Inhibition constant [11]: 0.26 µM
Inhibition constant [12]: 0.26 µM
Inhibition constant [13]: 0.3 µM

Compound: CCSc1nc2c(N)ncnc2n1C1O[C@H](COP(=O)(O)OP(=O)(O)OP(=O)(O)OP(=O)(O)OP(=O)(O)OC[C@H]2OC(n3cnc4c(N)ncnc43)[C@H](O)[C@@H]2O)[C@@H](O)[C@H]1O (some centres not stated)
Inhibition constant [14]: 0.08 µM
Inhibition constant [11]: 3.5 µM
Inhibition constant [15]: 0.06 µM
Inhibition constant [12]: 3 µM
Inhibition constant [13]: 0.08 µM and 0.07 µM

Compound: CCCSc1nc2c(N)ncnc2n1[C@@H]1O[C@H](COP(=O)(O)OP(=O)(O)OP(=O)(O)O)[C@@H](O)[C@H]1O
Ki [16]: 6.2 mM
Ki [2]: 0.07 mM
Ki [17]: 0.06 mM

Further lines, results first:

Ki [3]: 3.1 mM
Ki [4]: 11.4 mM
Ki [5]: 12.4 mM
Compound: CC(=O)NCCNc1ncnc2c1ncn2C1O[C@H](COP(=O)(O)O)[C@@H](O)[C@H]1O (some centres not stated)

Ki [4]: 12.6 mM
Ki [6]: 14 mM
Ki [7]: 4.8 mM
Compound: CC(=O)NCCCCCCCCNc1ncnc2c1ncn2C1O[C@H](COP(=O)(O)O)[C@@H](O)[C@H]1O (some centres not stated)

Ki [8]: 2 mM
Ki [2]: 3 mM
Compound: CCCCN(CCCC)c1ncnc2c1ncn2C1O[C@H](COP(=O)(O)OP(=O)(O)OP(=O)(O)O)[C@@H](O)[C@H]1O (some centres not stated)

Ki [1]: 12.9 mM
Ki [2]: 4.8 mM
Compound: CC(=O)NCCCCCCNc1ncnc2c1ncn2C1O[C@H](COP(=O)(O)OP(=O)(O)OP(=O)(O)O)[C@@H](O)[C@H]1O (some centres not stated)

Ki [18]: 6.2 mM
Ki [1]: 6 mM
Compound: O=C(CI)NCCCCCNc1ncnc2c1ncn2C1O[C@H](COP(=O)(O)OP(=O)(O)OP(=O)(O)O)[C@@H](O)[C@H]1O (some centres not stated)
